Experimental data taken from patent US10894040B2, “S1P modulating agents” (BIOGEN MA INC., priority 2011, dated 2021).

System: A2B5+ OPCs
Assay: OPC differentiation assay
Type: cell-based, Sprague Dawley rats
Conditions: 3-day incubation; for EC50: Rattus norvegicus, 72 h, MSD analysis; for activity in the OPC assay at 2 micromolar / activity in the OPC assay at 20 micromolar: symbols not defined in the patent
Experimental: OPC Differentiation Assay
Enriched populations of oligodendrocytes were grown from post-natal day 2 (P2) female Sprague Dawley rats. The forebrain was dissected out and placed in Hank's buffered saline solution (HBSS; Invitrogen, Grand Island, N.Y.). The tissue was cut into 1 mm fragments and incubated at 37° C. for 15 minutes in 0.01% trypsin and 10 μg/mL DNase. Dissociated cells were plated on poly-L-lysine-coated T75 tissue culture flasks and grown at 37° C. for 10 days in Dulbecco's modified Eagle's medium (DMEM) with 20% fetal calf serum (Invitrogen). A2B5^+ OPCs were collected by shaking the flask overnight at 200 rpm and 37° C., resulting in a 95% pure population.
For the differentiation assay, 2 μM and 20 μM antagonist or the same concentrations of vehicle (DMSO) were applied to OPCs cultured in CNTF/T3 containing media. After a 3-day incubation, […], cell were lysed and then subjected to MSD (Meso Scale Discovery-R) analysis. EC50 was calculated by Prism using a nonlinear sigmoidal dose-response curvecells. Alternatively, cells were lysed in 80 μL lysis buffer (50 mM HEPES [4-(2-hydroxyethyl)-1-piperazineethanesulfonic acid], pH 7.5, 150 mM NaCl, 1.5 mM MgCl2, 1 mM ethylene glycol tetraacetic acid [EGTA], 1% Triton X-100 and 10% glycerol) for 30 minutes at 4° C. After centrifugation at 14,000 g for 15 minutes, the supernatants were boiled in Laemmli sample buffer, subjected to 4-20% SDS-PAGE, and analyzed by Western blotting with anti-MBP, anti-myelin-associated glycoprotein (MAG), or anti-beta actin antibodies. The secondary antibodies used were anti-mouse IgG-HRP (horseradish peroxidase) and anti-rabbit IgG-HRP respectively.

| Compound | EC50 [µM] | activity in the OPC assay at 2 micromolar | activity in the OPC assay at 20 micromolar |
| --- | --- | --- | --- |
| CC(C)C1CCC(Oc2ccc3cc(CN4CCC(C(=O)O)CC4)ccc3c2)CC1 (centres unmarked) [Example 24, 1-((6-(4-Isopropylcyclohexyloxy)naphthalen-2-yl)methyl)piperidine-4-carboxylic acid] | < 10 |  |  |
| CC(C)(C)[C@H]1CC[C@H](Oc2ccc3cc(CN4CCCCC4C(=O)O)ccc3c2)CC1 (some centres unmarked) [Example 88, 1-[6-(4-tert-Butyl-cyclohexyloxy)-naphthalen-2-ylmethyl]-piperidine-2-carboxylic acid] |  | + to ++++ |  |
| O=C(O)C1CCN(Cc2ccc3cc(OC4CCOCC4)ccc3c2)CC1 [Example 83, 1-((6-(tetrahydro-2H-pyran-4-yloxy)naphthalen-2-yl)methyl)piperidine-4-carboxylic acid] |  | + to ++++ | + to ++++ |
| CC1(C(=O)O)CCN(Cc2ccc3cc(O[C@H]4CC[C@H](C(C)(C)C)CC4)ccc3c2)CC1 [Example 77, 1-((6-(trans-4-tert-Butylcyclohexyloxy)naphthalen-2-yl)methyl)-4-methylpiperidine-4-carboxylic acid] | < 10 | + to ++++ | + to ++++ |
| O=C(O)C1CCN(Cc2ccc3cc(OC4CCC5(CCCC5)CC4)ccc3c2)CC1 [Example 34, 1-((6-(Spiro[4.5]decan-8-yloxy)naphthalen-2-yl)methyl)piperidine-4-carboxylic acid] |  |  | + to ++++ |
| CC[C@H]1CC[C@H](Oc2ccc3cc(CN4CCC(C(=O)O)CC4)ccc3c2)CC1 [Example 38, 1-((6-(trans-4-Ethylcyclohexyloxy)naphthalen-2-yl)methyl)piperidine-4-carboxylic acid] |  |  | + to ++++ |
| CC(C)(C)[C@H]1CC[C@H](Oc2ccc3cc(C(N4CCC(C(=O)O)CC4)C(F)(F)F)ccc3c2)CC1 (stereo partly drawn) [Example 22, 1-(1-(6-(trans-4-tert-Butylcyclohexyloxy)naphthalen-2-yl)-2,2,2-trifluoroethyl)piperidine-4-carboxylic acid] | < 10 | + to ++++ | + to ++++ |
| CC1CN(Cc2ccc3cc(O[C@H]4CC[C@H](C(C)(C)C)CC4)ccc3c2)CCC1C(=O)O (some centres unmarked) [Example 58, 1-[6-(4-tert-Butyl-cyclohexyloxy)-naphthalen-2-ylmethyl]-3-methyl-piperidine-4-carboxylic acid] | < 10 | + to ++++ | + to ++++ |
| O=C(O)C1CCN(Cc2ccc3cc(OC4CCCCCC4)ccc3c2)CC1 [Example 81, 1-((6-(cycloheptyloxy)naphthalen-2-yl)methyl)piperidine-4-carboxylic acid] |  |  | + to ++++ |
| CC(C)(C)C1CCC(=Cc2ccc3cc(CN4CCC(C(=O)O)CC4)ccc3c2)CC1 (centres unmarked) [Example 52, 1-((6-((4-tert-Butylcyclohexylidene)methyl)naphthalen-2-yl)methyl)piperidine-4-carboxylic acid] |  |  | + to ++++ |
| CC(C)(C)[C@H]1CC[C@H](Oc2ccc3cc(CN4CCC(O)(C(=O)O)CC4)ccc3c2)CC1 [Example 61, 1-[6-(4-tert-Butyl-cyclohexyloxy)-naphthalen-2-ylmethyl]-4-hydroxy-piperidine-4-carboxylic acid] | < 10 | + to ++++ | + to ++++ |
| CCC1CCC(Oc2ccc3cc(CN4CCC(C(=O)O)CC4)ccc3c2)CC1 (centres unmarked) [Example 30, 1-((6-(4-Ethylcyclohexyloxy)naphthalen-2-yl)methyl)piperidine-4-carboxylic acid] | < 10 | + to ++++ | + to ++++ |
| CC(C)(C)[C@H]1CC[C@H](Oc2ccc3cc(CN4CCC(C(=O)O)(c5ccccc5)CC4)ccc3c2)CC1 [Example 59, 1-[6-(4-tert-Butyl-cyclohexyloxy)-naphthalen-2-ylmethyl]-4-phenyl-piperidine-4-carboxylic acid] |  | + to ++++ |  |
| CC(C)(C)[C@H]1CC[C@H](Oc2ccc3cc(CN4CCCC(C(=O)O)CC4)ccc3c2)CC1 (some centres unmarked) [Example 60, 1-[6-(4-tert-Butyl-cyclohexyloxy)-naphthalen-2-ylmethyl]-perhydro-azepine-4-carboxylic acid] | < 10 | + to ++++ |  |
| CC(C)(C)[C@H]1CC[C@H](Oc2ccc3cc(C(=O)N4CCC(C(=O)O)CC4)ccc3c2)CC1 [Example 48, 1-(6-(trans-4-tert-Butylcyclohexyloxy)-2-naphthoyl)piperidine-4-carboxylic acid] |  | + to ++++ | + to ++++ |
| CCC1(C(=O)O)CCN(Cc2ccc3cc(O[C@H]4CC[C@H](C(C)(C)C)CC4)ccc3c2)CC1 [Example 56, 1-[6-(4-tert-Butyl-cyclohexyloxy)-naphthalen-2-ylmethyl]-4-ethyl-piperidine-4-carboxylic acid] |  | + to ++++ |  |
| CC(C)(C)[C@H]1CC[C@H](Oc2ccc3cc(CN4CCC(C(=O)O)CC4)ncc3c2)CC1 [Example 75, 1-[7-(trans-4-tert-Butyl-cyclohexyloxy)-isoquinolin-3-ylmethyl]-piperidine-4-carboxylic acid] |  | + to ++++ | + to ++++ |
| CC(C)(C)[C@H]1CC[C@H](Oc2ccc3nc(CN4CCC(C(=O)O)CC4)ccc3c2)CC1 [Example 42, 1-((6-(trans-4-tert-Butylcyclohexyloxy)quinolin-2-yl)methyl)piperidine-4-carboxylic acid] | < 10 | + to ++++ | + to ++++ |
| CC[C@H]1CC[C@@H](Oc2ccc3cc(CN4CCC(C(=O)O)CC4)ccc3c2)CC1 [Example 36, 1-((6-(cis-4-Ethylcyclohexyloxy)naphthalen-2-yl)methyl)piperidine-4-carboxylic acid] |  | + to ++++ | + to ++++ |
| CC(C)(C)[C@H]1CC[C@H](Oc2ccc3cc(CN4CCC(CC(=O)O)CC4)ccc3c2)CC1 [Example 62, {1-[6-(4-tert-Butyl-cyclohexyloxy)-naphthalen-2-ylmethyl]-piperidin-4-yl}-acetic acid] |  | + to ++++ | + to ++++ |
| O=C(O)C1CCN(Cc2ccc3cc(OC4CCC5(CCC5)CC4)ccc3c2)CC1 [Example 87, 1-((6-(spiro[3.5]nonan-7-yloxy)naphthalen-2-yl)methyl)piperidine-4-carboxylic acid] |  |  | + to ++++ |
| CCCC1(C(=O)O)CCN(Cc2ccc3cc(O[C@H]4CC[C@H](C(C)(C)C)CC4)ccc3c2)CC1 [Example 57, 1-[6-(4-tert-Butyl-cyclohexyloxy)-naphthalen-2-ylmethyl]-4-propyl-piperidine-4-carboxylic acid] |  | + to ++++ | + to ++++ |
| CC(C)(C)[C@H]1CC[C@@H](Oc2ccc3cc(CN4CCC(C(=O)O)CC4)ccc3c2)CC1 [Example 26, 1-((6-(cis-4-tert-Butylcyclohexyloxy)naphthalen-2-yl)methyl)piperidine-4-carboxylic acid] | < 10 |  | + to ++++ |
| CC(C)(C)[C@H]1CC[C@H](Oc2ccc3cc(CN4CCC(C(=O)O)CC4)ccc3n2)CC1 [Example 55, 1-((2-(trans-4-tert-Butylcyclohexyloxy)quinolin-6-yl)methyl)piperidine-4-carboxylic acid] |  | + to ++++ |  |
| O=C(O)C1CCN(Cc2ccc3cc(OC4CCC5(CCCCC5)CC4)ccc3c2)CC1 [Example 85, 1-((6-(spiro[5.5]undecan-3-yloxy)naphthalen-2-yl)methyl)piperidine-4-carboxylic acid] |  | + to ++++ | + to ++++ |
| CC(C)(C)[C@H]1CC[C@H](Oc2ccc3nc(CN4CCC(C(=O)O)CC4)ncc3c2)CC1 [Example 15, 1-((6-(trans-4-tert-Butylcyclohexyloxy)quinazolin-2-yl)methyl)piperidine-4-carboxylic acid] |  | + to ++++ |  |
| CCCCC1CCC(Oc2ccc3cc(CN4CCC(C(=O)O)CC4)ccc3c2)CC1 (mixture of isomers) [Example 32, 1-((6-(4-Butylcyclohexyloxy)naphthalen-2-yl)methyl)piperidine-4-carboxylic acid] | < 10 | + to ++++ | + to ++++ |
